The structures appear in SMILES notation.

The text below walks through data of a melting point compilation (Tetko et al.; mined from patent text by program, amines drawn as free bases though some values may be those of a salt).

With `O=S(=O)(Nc1ccccc1/C=C/c1ccncc1)c1ccc(OC(F)(F)F)cc1`, the melting point – broadly, the temperature of the solid-liquid transition – lay within 151 to 153 °C. For `CC1CCN(c2nc(-c3ncccn3)cc(Cl)c2-c2c(F)cccc2Cl)CC1`, the melting point was found to be 129 °C.

For the compound `COc1cccc2c1C(=O)c1nc(-c3ccccc3)sc1C2=O`, the melting point came to 245 °C.

`Fc1cc(F)c(C(Cl)(Cl)Cl)cc1C(Cl)(Cl)Cl` came in with a melting point of 77 to 79 °C. Under `NS(=O)(=O)OCCOc1ccccc1Cl` stands 84.5 to 86 °C; under `CC(=O)Nc1nc(CCc2ccc(CCl)cc2)cs1`, 145 to 146 °C.

Take `COc1ccnc(-c2ccccc2S(=O)c2nc3cc(N)ccc3[nH]2)c1` (configuration not stated): the melting point was 192 to 193 °C. Under `C=CCNC(=O)c1c(O)c2ccc(Cl)cc2n(C)c1=N` stands 212 to 214 °C. On to `COc1ccc(N2CCN(c3c(C)c(C)c4c(c3C)C(O)(c3cccs3)C(C)(C)O4)CC2)cc1` (configuration not stated), for which the melting point fell in the range of 154 to 155 °C. The compound `Cc1ccc(Oc2ccc(-c3ccn(CC4CC4)c(=O)c3Cl)cc2F)c(C)n1` yielded a melting point of 143 °C. Under `CCOC(=O)CC1CCC(CCNS(=O)(=O)c2ccc(Br)cc2)CC1` (configuration not stated) stands 62 °C; under `O=C(CCCl)Nc1ccc(F)c(F)c1`, 76 °C; under `CC(C)c1c(C=C(Br)Br)c(-c2ccc(F)cc2)n2ccccc12`, 118 to 120 °C. Under `COc1cc(Nc2c(NC(C)C(C)(C)C)c(=O)c2=O)c2ncccc2c1` (configuration not stated) stands 243 to 245 °C. Under `CC(C)Oc1cc(CCCOc2nn(C)cc2CC(=O)O)n(Cc2ccc(Cl)cc2Cl)n1` stands 96 to 97 °C; under `O=S1CCON=C1c1nc2ccccc2s1` (configuration not stated), 192 to 195 °C. `Cc1c2c(cnc3ccccc32)nn1-c1ccccc1` had a melting point of 128 to 130 °C. Compound `Fc1ccc(Oc2ccc3nc(Cl)ncc3c2)c(F)c1` came in with a melting point of 110 to 113 °C.

`O=C(OCCS(=O)(=O)CCCOCCc1ccccc1)c1ccccc1`: the melting point came to 65.5 °C. In the case of `COCc1c(C(=O)O)ncc2[nH]c3c(c12)CCCC3`, the melting point is more than 260 °C. With `Cc1ccc(S(=O)(=O)CCCc2c[nH]c([N+](=O)[O-])n2)cc1` the figure was 108 to 111 °C. With `COC(=O)CC(=O)C[C@@H]1CC(=O)N1` the figure was 45 to 46.5 °C; with `COc1cc(-c2ccc(O)c(C3(C)CCCCC3)c2)cc(CC2SC(N3CCOCC3)=NC2=O)c1O` (configuration not stated), 221 to 223 °C; with `C[C@@H](Nc1ncnc2[nH]c(-c3ccc(CO)cc3)cc12)c1ccccc1`, more than 300 °C. `COCCOc1cc(NC(=O)OC(C)(C)C)c([N+](=O)[O-])cc1C#Cc1ccccc1` returned a melting point of 118 to 119 °C. Under `C[C@@H](n1cnc2cc(-c3ccc(F)cc3)sc2c1=O)[C@](O)(Cn1cncn1)c1ccccc1F` stands 213 to 225 °C; under `CN1CCN(C2=C3CN(C)CC34CC(=CC#N)C=CC4=NC=C2)CC1` (configuration not stated), 178 to 180 °C; under `CCOC(=O)C(=C1SC(=O)N(CC(=O)O)C1=O)c1csc(NC(C)=O)n1`, 288 to 290 °C. Compound `CCN(CC)OCc1cc(C(C)(C)C)c(O)c(C(C)(C)C)c1` yielded a melting point of 129 to 137 °C. Under `COc1ccc(CCNC(=O)C(=O)NCCCCCCNC(=O)OC(C)(C)C)cc1OC1CCCC1` stands 135 to 137 °C; under `O=C(O)c1ccc(-c2nc(-c3ccc(OC(F)(F)F)cc3)cs2)cc1`, 245 to 246 °C; under `COC1(c2csc(S(=O)(=O)c3ccc4c(c3)CC/C4=N\O)c2)CCOCC1`, 144 to 145 °C. Compound `CCOC(=O)Nc1ccc(OCc2ccc(Cl)nc2)cc1F` returned a melting point of 139 °C. With `CCSc1nc(=O)[nH]cc1C` the figure was 181 to 184 °C. `CC1=C(c2ccncc2)CCC(=O)N1` showed a melting point of 175 to 177 °C. In turn, `C=CCC1(O)CCC2C3CCC4=CC(=O)CCC4C3CCC21Cc1cccc(N(C)C)c1` (configuration not stated) registered a melting point of 142 °C.

In turn, `O=C(O)C(=O)CC(=O)c1cc(C(=O)CC(=O)C(=O)O)n(Cc2ccc(F)cc2)n1` displayed a melting point of 215 to 217 °C.

In the case of `CC(C)(C)OC(=O)NCCCn1c2c(c3ccc(NC(=O)CC(=O)O)cc3c1=O)C(=O)c1ccccc1-2`, the melting point lay in the range of 211 to 212 °C. With `COC(=O)CC(=O)c1ncccc1Cl` the figure was 113 to 116 °C; with `CCOC(=O)c1c(CN2C(=O)CN(C)C2=O)nc2sc3c(c2c1-c1ccc(OC)c(OC)c1)CCN(C(=O)c1ccccc1)C3`, 185 to 187 °C. `c1c(NC23CC4CC(CC(C4)C2)C3)nc(NC23CC4CC(CC(C4)C2)C3)nc1N1CCNCC1` showed a melting point of 168 to 175 °C. As to `Cn1c(C(=O)c2ccc(F)cc2)cc2cc(OCc3ccccc3)ccc21`, the melting point lay within 118 to 120 °C. With `Cc1cc(C(N)=O)ncc1C(SCCC=C(F)F)c1c(F)ccc(F)c1F` (configuration not stated) the figure was 97 to 98 °C; with `COc1ccc([N+](=O)[O-])c(Oc2cc(C)[nH]n2)n1`, 133 to 136 °C.

`COc1ccc2nn(-c3cc(OCCCO)cc(C(C)(C)C)c3O)nc2c1` yielded a melting point of 128 to 130 °C. With `COC(=O)C(Cc1ccc(O)cc1)NC(=O)C(Cc1ccccc1)NC(=O)c1ccc(OC)cc1` (configuration not stated) the figure was 195 to 197 °C; with `O=C1CCC(N2Cc3c(OCc4ccc(CN5CCn6nc(C(F)(F)F)nc6C5)cc4)cccc3C2=O)C(=O)N1` (configuration not stated), 139 to 142 °C.

The compound `O=C(Cc1ccccc1Cl)Nc1ccc(C(=O)N2Cc3cccn3Cc3ccccc32)cc1` registered a melting point of 99 to 103 °C. Under `CCNC1=CC(=O)CC1` stands 136 °C; under `CC(C)(C)[C@H]1OC(=O)[C@H](c2cccc(Cl)c2)O1`, 40 to 42 °C. Under `CCN1C(=O)CCCc2cc(Nc3ncc(Cl)c(Nc4ccccc4-n4cccn4)n3)c(OC)cc21` stands 82 to 85 °C; under `COc1ccc(C2CCN(CCC3CCCCc4ccccc43)CC2)cc1OC` (configuration not stated), 127 to 128 °C.

Regarding `CCCc1nn(C)c2c(=O)n(CCOc3ccc(SC(C)(C)C(=O)O)cc3)c(CC)nc12`, the melting point lay within 104 to 106 °C. Under `CNC(=O)Nc1ccc(OCCCN2CCC(C(O)(c3ccc(F)cc3)c3ccc(F)cc3)CC2)cc1` stands 177 to 178 °C; under `CC(C)(O)CCOc1c(-c2ccc(S(C)(=O)=O)cc2)cnn(-c2ccc(Cl)c(Cl)c2)c1=O`, 118 to 120 °C. Take `CC(=O)Nc1cccc2c1C(=O)c1c-2n[nH]c1-c1ccccc1`: the melting point is more than 300 °C. With `CC(C)c1cccc(C(C)C)c1NC(=O)[C@H](Cc1ccc(OCc2ccccc2)cc1)NC(=O)OCC1c2ccccc2-c2ccccc21` the figure was 168 to 171 °C; with `CCOC(=O)CC(C(=O)c1ccc(OC)cc1)c1ccc(OC)c(F)c1` (configuration not stated), 117 to 118 °C; with `O=C(CC1CCOCC1)c1c(O)c2cccnc2n(-c2ccccc2)c1=O`, 198 to 203 °C. With `COc1cc(C(=O)NCc2ccccc2)cc(NC(=O)c2ccccc2)n1` the figure was 132 to 133 °C; with `CC(C)(C)c1cc(O)cc(C(C)(C)C)c1S(=O)c1nnc(-c2ccccn2)o1` (configuration not stated), 172 to 173 °C.

In turn, `O=C(O)c1cccc(-c2nc(-c3ccc(F)c(F)c3)cs2)c1` displayed a melting point of 255 to 256 °C.
